EP0431972A2, “Macrocyclic lactones having renin inhibiting properties” (MERCK & CO. INC., priority 1989, dated 1991)
Square brackets hold non-standard residues; d marks the D form. Peptide text beside a SMILES is read from it. * marks the point of attachment. Sta = CC(C)C[C@H](N)[C@@H](O)CC(=O)O; Isovaleryl = CC(C)CC(=O)*

Columns and labels:
[1] = system: conscious sodium-deficient Rhesus monkeys; assay: intravenous evaluation of renin inhibitors in conscious sodium-deficient Rhesus monkeys (blood pressure lowering); format: in vivo; conditions: i.v. bolus injection
Text: The following methods were used for in vivo evaluation of the renin inhibitors of Formua I : Intravenous evaluation of renin inhibitors in conscious sodium-deficient Rhesus monkeys : Rhesus monkeys, male and female, weighing 2.6-4.5 Kg, were surgically prepared with chronic arterial and venous catheters and vascular access ports for direct monitoring of mean arterial pressure (MAPI) and heart rate (HR). The animals were maintained on a low sodium diet (1.2 mmol Nalday) plus fruit for a week, and administered LASIX (furosemide) at 2.5 mg/Kg, intramuscularly the evening prior to the experiment The animals had been trained to sit quietly in the chairs with waterAD LIBIUM for the duration of the experiment. The inhibitors were administered by bolus injection using 0.5% acetic acid-5% dextrose in water as the vehicle (0.4 ml/Kg), and MAP and HRwere measured. Blood samples were withdrawn at different time intervals beginning at the nadir of hypotensive response. PRA was determined as described above. […] A projected ED50 dose for each inhibitorwas calculated using the following formula: ED50 (Test Inhibitor, umoles/Kg) = ED50 (SCRIP) X [IC50 (Test Inhibitor)/IC50 (SCRIP)], where the IC50 values were determined against human plasma renin. […] Percent inhibition of monkey PRA, changes in MAP and HR were calculated and plotted against time. […]

human plasma renin = human plasma renin IC50 determination; format: biochemical; conditions: against human plasma renin, pH 7.4
Experimental: The following method was used for in vitro evaluation of the renin inhibitors of Formuta t: • The human plasma renin IC50 values for inhibitors of Formula I were determined at pH 7.4 following the procedure described in J. Boger, L.S. Payne, D.S. Perlow, N.S. Lohr, M. Poe, E.H. Blaine, E.H. Elm, T.W. Schorn, B.I. Lamont, T.-Y. Lin, M. Kawai, D.H. Rich and D.F. Veber, J. Med. Chem., 28, 1779 (1985).

IC50 (human plasma renin): 3.7 nM
SMILES: CC(C)CC(=O)N[C@@H](Cc1c[nH]cn1)C(=O)N1CCC[C@H]1C(=O)N[C@@H](Cc1ccccc1)C(=O)N[C@@H](Cc1c[nH]cn1)C(=O)N[C@@H](CC(C)C)[C@@H](O)CC(=O)N[C@@H](CC(C)C)C(=O)N[C@@H](Cc1ccccc1)C(N)=O [SCRIP, Iva-His-Pro-Phe-His-Sta-Leu-Phe-NH2] (Isovaleryl-HPFH[Sta]LF-NH2)
i.v. dose of the standard inhibitor required to lower blood pressure by 50% of the maximal response (ED50) [1]: 0.039 µmol/kg
